Source: publication PMC8769072, “Proteome‐scale mapping of binding sites in the unstructured regions of the human proteome” (Molecular Systems Biology, 2022)

System: immobilized GST-tagged bait protein domains
Assay: ProP-PD phage selections (HD2 P8, sublibraries, HD2 P3, HD1 P8) with NGS and confidence level
Type: binding, human
[1] = bait AP2B1_adaptin__P63010_700_937, library HD
[2] = bait AP2B1_adaptin__P63010_700_937, library HD, mean normalised NGS counts
[3] = bait AP2B1_adaptin__P63010_700_937, library HD, mean raw NGS counts, all selections
[4] = bait MAP1LC3B_ATG8 (Q9GZQ8 2-119), HD2 library, benchmark motif instance recovered in the ProP-PD selection (TRUE/FALSE)
[5] = library HD2, bait EPS15_EH__P42566_121_215, whether the validated benchmark motif instance was recovered in the ProP-PD selection (TRUE/FALSE)
[6] = HD2 library, bait SUMO1_SUMO__P63165_1_101, known motif instance of the benchmarking set found (TRUE) or not found (FALSE) among selected peptides
[7] = bait KPNA4_Arm (O00629 68-487), HD2 library, benchmark motif instance recovered in the ProP-PD selection (TRUE/FALSE)
[8] = library HD2, bait YES1_SH3__P07947_90_152, validated benchmark motif instance, in_library_check TRUE, TRUE/FALSE = instance recovered in ProP-PD selection
[9] = bait ANKRA2_Ank__Q9H9E1_142_313, HD2 P8 selection, confidence level -4 to 4: 4 = High, 3 or 2 = Medium, 1 = Low, 0 = Filtered/Noise
[10] = bait MDM2_p53-binding-domain (Q00987 17-125), HD2 library, benchmark motif instance recovered in the ProP-PD selection (TRUE/FALSE)
[11] = library HD2, bait VASP_EVH1__P50552_1_114, validated benchmark motif instance, in_library_check TRUE, TRUE/FALSE = instance recovered in ProP-PD selection
[12] = bait PEX14_Pex14__O75381_16_84, HD2 library, whether the validated benchmark motif instance was recovered in the ProP-PD selection (TRUE/FALSE)
[13] = bait PABP-B_PABP__P11940_544_623, HD2 library, whether the validated benchmark motif instance was recovered in the ProP-PD selection (TRUE/FALSE)
[14] = bait AP2B1_adaptin__P63010_700_937, library HD2, benchmarking set of validated motif instances, TRUE = motif instance recovered in the ProP-PD selection
[15] = library HD2, bait Keap1_KELCH__Q14145_321_609, whether the validated benchmark motif instance was recovered in the ProP-PD selection (TRUE/FALSE)
[16] = bait MAP1LC3A_ATG8 (Q9H492 2-121), HD2 library, benchmark motif instance recovered in the ProP-PD selection (TRUE/FALSE)
[17] = bait MDM2_p53-binding-domain (Q00987 17-125), HD2 library, confidence level (1-4) of best matching peptide
[18] = bait MDM2_p53-binding-domain (Q00987 17-125), HD2 library, specificity score of best matching peptide
[19] = HD2 library, bait CALM1_EF-hand__P0DP23_2_149, benchmark motif instance, in_library_check FALSE, in_library_coverage 0

DVDYFGQQFDQISNRT
HD confidence [1]: 2 | HD count proportions [2]: 0.1904 | HD mean counts [3]: 883.25

DWSNLVDAAKAYEVQR
HD2-1mM_CaCl confidence (bait CALM1 EF-hand (P0DP23, 2-149), HD2 library selection with 1mM_CaCl, confidence level (4 = High, 2 or 3 = Medium, 1 = Low)): 2 | HD2 confidence (bait CALM1 EF-hand (P0DP23, 2-149), HD2 library selection, confidence level (4 = High, 2 or 3 = Medium, 1 = Low)): 3

DYDQSRTKVLHMSLNPTSVARQR
motif_found (bait MAD2L1_HORMA (Q13257 1-205), HD2 library, benchmark motif instance recovered in the ProP-PD selection (TRUE/FALSE)): FALSE

DYESDDDSYEVLDLTEY
motif_found [4]: FALSE

DYFDYESTNPFTAKFRASN
motif_found [5]: FALSE

EASKKKVDVIDLTIESSSDE
motif_found [6]: FALSE

EATNTTSEPSAPSQDLLDLS
motif_found (HD2 library, bait TSG101_UEV__Q99816_1_145, known motif instance of the benchmarking set found (TRUE) or not found (FALSE) among selected peptides): FALSE

ECISSAMPKKKKPSRLKGDNE
motif_found [7]: FALSE

EDSPLLEDWDIISPKDVIG [TBC1D25 135-139]
motif_found (HD2 library, bait MAP1LC3A_ATG8__Q9H492_2_121, benchmark motif instance, in_library_check FALSE, in_library_coverage 0): FALSE | motif_found (HD2 library, bait MAP1LC3B_ATG8__Q9GZQ8_2_119, benchmark motif instance, in_library_check FALSE, in_library_coverage 0): FALSE

EEARKSPTPSAPVPLTEPAA
motif_found (library HD2, bait TSG101_UEV__Q99816_1_145, validated benchmark motif instance, in_library_check TRUE, TRUE/FALSE = instance recovered in ProP-PD selection): FALSE

EEDQILKKPLPPEPAAAPVST
motif_found [8]: FALSE

EEEEAVAGNPFIQPDSPAP
motif_found [5]: FALSE

EEEELDESNPFYEPKSTPP
motif_found [5]: FALSE

EEEMEVPVLPKISLPI
HD2 confidence [9]: 2

EETFQLSRWTPFIKDI
HD confidence [1]: 3 | HD count proportions [2]: 0.004596 | HD mean counts [3]: 9.0

EFLSPEVFQHIWDFLEQPICSV
motif_found [10]: FALSE

EGALGGAFPPPPPPIEESF
motif_found [11]: FALSE

EGTATDRWYDEYHPEEDLQ
motif_found [12]: FALSE

EKPVPTLPQFTMGPNV
HD2 confidence [9]: 3

ELDKEIKNSFNPEAQVFMPISDPASSV
motif_found [13]: FALSE

ELDTNDDDIVFEDFARQRLKGMKDD,DDDIVFEDFARQRL [ARRB1]
motif_found [14]: FALSE

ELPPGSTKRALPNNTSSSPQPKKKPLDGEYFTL
motif_found [7]: FALSE

ELSMFQLPTLNFSPEQ
confidence (library HD, bait ANKRA2_Ank__Q9H9E1_142_313, ProP-PD peptides with disease-related mutations): 3

EPCGQRDSPPDYHLLF
p3_HD2 confidence (bait NEDD4_WW_4_P46934_890_928, HD2 P3 library, confidence level (4 = High, 2-3 = Medium, 1 = Low)): 4 | p3_HD2 mean counts (bait NEDD4_WW_4_P46934_890_928, HD2 P3 library, mean NGS counts over replicate selections): 3356 | p3_HD2 count proportions (bait NEDD4_WW_4_P46934_890_928, HD2 P3 library, mean proportion of NGS counts): 0.1373

EPSKPAATRKRRWSAPESRK
motif_found [7]: FALSE

EPSTTPNNWADFSSTW
HD confidence [1]: 3 | HD2 confidence (bait AP2B1_adaptin__P63010_700_937, library HD2 P8): 4 | HD2_endomembrane confidence (bait AP2B1_adaptin__P63010_700_937, library HD2 P8 endomembrane): 4 | HD count proportions [2]: 0.0006275 | HD mean counts [3]: 1.5

EQVASKGTGLNPNAKVWQEIAPGNTDA
motif_found [13]: FALSE

ERSGVIREVMIIEVSSSEEE
motif_found [6]: FALSE

ESAKAADDPENGERESHTPV
motif_found [15]: FALSE

ESEDYSQPSTSSSIIYSSQ
motif_found (library HD2, bait USP7_MATH-TRAF__Q93009_53_206, validated benchmark motif instance, in_library_check TRUE, TRUE/FALSE = instance recovered in ProP-PD selection): FALSE

ESFGGGFADFSTLSKV
best_specificity (bait AP2B1_adaptin__P63010_700_937, library HD2, best matching peptide): 1 | best_confidence (bait AP2B1_adaptin__P63010_700_937, library HD2, confidence level of best matching peptide (4 = High, 2 or 3 = Medium, 1 = Low)): 3

ESGSLEDDWDFLPPKKIKD
motif_found [16]: FALSE | motif_found [4]: FALSE

ESSNLCMPDLPHLLAF
HD2 confidence (bait ANKRA2_Ank__Q9H9E1_142_313, library HD2 P8): 4

ETPGDGKPPALPPKQS
p3_HD2 confidence (bait CRK_SH3_1_P46108_124_198, HD2 P3 library, confidence level (4 = High, 2-3 = Medium, 1 = Low)): 3 | p3_HD2 mean counts (bait CRK_SH3_1_P46108_124_198, HD2 P3 library, mean NGS counts over replicate selections): 437.0 | p3_HD2 count proportions (bait CRK_SH3_1_P46108_124_198, HD2 P3 library, mean proportion of NGS counts): 0.01474

ETRICKIYDSPCLPEAEAMFA
motif_found [8]: FALSE

FADFSTLSKVNNEDPF
HD confidence [1]: 3 | HD count proportions [2]: 0.0005532 | HD mean counts [3]: 1.25

FASKPPTTNPFL-------
motif_found [5]: FALSE

FASQEKFFQELFDSELASQ
motif_found [12]: FALSE

FATLPRKKNPFEESSETWD
motif_found [5]: FALSE

FDIDMDAPETERAAVAIQSQFRKFQKKKAGSQS,DMDAPETERAAVAIQSQFRKFQKKKAGSQS---- [PCP4]
motif_found (bait CALM1_EF-hand__P0DP23_2_149, library HD2, benchmarking set of validated motif instances, TRUE = motif instance recovered in the ProP-PD selection): FALSE

FEAQWAALEGKATVEK
motif_found [10]: TRUE | best_confidence [17]: 3 | best_specificity [18]: 1

FEAQWAALENKSKQRT
motif_found [10]: TRUE | best_confidence [17]: 3 | best_specificity [18]: 0.97

FFAQLQLDEETGEFLPIQPA
motif_found [15]: FALSE

FGPPPQVPSRPNRAPPGVPS [DNM1]
motif_found (bait CRK_SH3_1_P46108_124_198, library HD2, benchmarking set of validated motif instances, TRUE = motif instance recovered in the ProP-PD selection): FALSE

FITGLTRTNPFSDRTAAPG
motif_found [5]: FALSE

FLGNGNELEWEDDTPVATAKNMPG
motif_found (library HD2, bait KLC1_TPR__Q07866_203_497, whether the validated benchmark motif instance was recovered in the ProP-PD selection (TRUE/FALSE)): FALSE

FLKLKNAATLIQRHWRGHNCRKNYGLMRLGF [MYO7A 771-787]
motif_found [19]: FALSE

FPTDERSWVYSPLHYS
HD confidence (bait TLN1_PTB__Q9Y490_309_401, library HD): 3 | p3_HD2 confidence (bait TLN1_PTB__Q9Y490_309_401, library HD2 P3): 2 | p3_HD2 count proportions (bait TLN1_PTB__Q9Y490_309_401, library HD2 P3, mean normalised NGS counts): 0.001295 | p3_HD2 mean counts (bait TLN1_PTB__Q9Y490_309_401, library HD2 P3, mean raw NGS counts, all selections): 12.2 | HD2 confidence (bait TLN1_PTB__Q9Y490_309_401, library HD2 P8): 4 | HD2_nc confidence (bait TLN1_PTB__Q9Y490_309_401, library HD2 P8 nucleocytoplasmic): 3 | HD2_nc count proportions (bait TLN1_PTB__Q9Y490_309_401, library HD2 P8 nucleocytoplasmic, mean normalised NGS counts): 0.1307 | HD2_nc mean counts (bait TLN1_PTB__Q9Y490_309_401, library HD2 P8 nucleocytoplasmic, mean raw NGS counts, all selections): 5802.8 | HD count proportions (bait TLN1_PTB__Q9Y490_309_401, library HD, mean normalised NGS counts): 0.08207 | HD mean counts (bait TLN1_PTB__Q9Y490_309_401, library HD, mean raw NGS counts, all selections): 2181

FPTGSSSTNPFL-------
motif_found [5]: FALSE

FRHRLWAVLTVQAYARGMIARRLHQRLRAEY [MYO7A 840-856]
motif_found [19]: FALSE

FRPENEEDILVVTTQGEVE
motif_found [16]: FALSE | motif_found [4]: FALSE

GAQASVGSRSEGEGEAASADDG
motif_found (HD2 library, bait TNKS_TANK-peptide-bind__O95271_174_649, known motif instance of the benchmarking set found (TRUE) or not found (FALSE) among selected peptides): FALSE

GCMKTCPLIDLEVDNGPAQ [GGA2]
motif_found (bait CLTC_Clathrin-propeller__Q00610_1_364, library HD2, benchmarking set of validated motif instances, TRUE = motif instance recovered in the ProP-PD selection): FALSE

GDSQGRKRRQTSMTDFYHSKRRLIFSKRKP-
motif_found [7]: FALSE

GEAWGHSSRTSPLDNV
HD2_nucleus confidence (bait WDR5_WD_1234567_P61964_21_334, library HD2 P8 nucleus): 4

GEYVRVKLQLNPAAREFKPDVKSKPVS
motif_found [13]: FALSE

GGFDTEPDEFSDFDRLRTALPTSG [EPN1]
motif_found [14]: FALSE

GGMNWADLLPPPPAHP
best_confidence (library HD2, bait VASP_EVH1__P50552_1_114, confidence level of best matching selected peptide (4 High, 2-3 Medium, 1 Low)): 3 | best_specificity (library HD2, bait VASP_EVH1__P50552_1_114, specificity score of best matching selected peptide): 0.99 | motif_found [11]: TRUE

GHPESPPRKRLKSKGSDKDF
motif_found [7]: FALSE
